Here are results for 24 compounds from patent US20140155389A1, “BICYCLIC INHIBITORS OF ALK” (ABBVIE INC., priority 2011, published 2014).

For the assay, the target named is T1, ALK (Homo sapiens, UniProt Q9UM73).
T1 construct: purchased Millipore
The assay can be described thus: ALK kinase assay (HTRF). The assay is classed as biochemical. The settings on record: apparent Ki from IC50 by Cheng-Prusoff; ALK (Millipore) 3 nM or 4 nM, 50 μM ATP, 1 h at room temperature; read-out: HTRF_ALK Human - Ki. On the technique in general: In TR-FRET formats the signal depends on donor and acceptor labels being close together.

pKi: −log10 of the molar value.

T1 sequence (Q9UM73 19-1620): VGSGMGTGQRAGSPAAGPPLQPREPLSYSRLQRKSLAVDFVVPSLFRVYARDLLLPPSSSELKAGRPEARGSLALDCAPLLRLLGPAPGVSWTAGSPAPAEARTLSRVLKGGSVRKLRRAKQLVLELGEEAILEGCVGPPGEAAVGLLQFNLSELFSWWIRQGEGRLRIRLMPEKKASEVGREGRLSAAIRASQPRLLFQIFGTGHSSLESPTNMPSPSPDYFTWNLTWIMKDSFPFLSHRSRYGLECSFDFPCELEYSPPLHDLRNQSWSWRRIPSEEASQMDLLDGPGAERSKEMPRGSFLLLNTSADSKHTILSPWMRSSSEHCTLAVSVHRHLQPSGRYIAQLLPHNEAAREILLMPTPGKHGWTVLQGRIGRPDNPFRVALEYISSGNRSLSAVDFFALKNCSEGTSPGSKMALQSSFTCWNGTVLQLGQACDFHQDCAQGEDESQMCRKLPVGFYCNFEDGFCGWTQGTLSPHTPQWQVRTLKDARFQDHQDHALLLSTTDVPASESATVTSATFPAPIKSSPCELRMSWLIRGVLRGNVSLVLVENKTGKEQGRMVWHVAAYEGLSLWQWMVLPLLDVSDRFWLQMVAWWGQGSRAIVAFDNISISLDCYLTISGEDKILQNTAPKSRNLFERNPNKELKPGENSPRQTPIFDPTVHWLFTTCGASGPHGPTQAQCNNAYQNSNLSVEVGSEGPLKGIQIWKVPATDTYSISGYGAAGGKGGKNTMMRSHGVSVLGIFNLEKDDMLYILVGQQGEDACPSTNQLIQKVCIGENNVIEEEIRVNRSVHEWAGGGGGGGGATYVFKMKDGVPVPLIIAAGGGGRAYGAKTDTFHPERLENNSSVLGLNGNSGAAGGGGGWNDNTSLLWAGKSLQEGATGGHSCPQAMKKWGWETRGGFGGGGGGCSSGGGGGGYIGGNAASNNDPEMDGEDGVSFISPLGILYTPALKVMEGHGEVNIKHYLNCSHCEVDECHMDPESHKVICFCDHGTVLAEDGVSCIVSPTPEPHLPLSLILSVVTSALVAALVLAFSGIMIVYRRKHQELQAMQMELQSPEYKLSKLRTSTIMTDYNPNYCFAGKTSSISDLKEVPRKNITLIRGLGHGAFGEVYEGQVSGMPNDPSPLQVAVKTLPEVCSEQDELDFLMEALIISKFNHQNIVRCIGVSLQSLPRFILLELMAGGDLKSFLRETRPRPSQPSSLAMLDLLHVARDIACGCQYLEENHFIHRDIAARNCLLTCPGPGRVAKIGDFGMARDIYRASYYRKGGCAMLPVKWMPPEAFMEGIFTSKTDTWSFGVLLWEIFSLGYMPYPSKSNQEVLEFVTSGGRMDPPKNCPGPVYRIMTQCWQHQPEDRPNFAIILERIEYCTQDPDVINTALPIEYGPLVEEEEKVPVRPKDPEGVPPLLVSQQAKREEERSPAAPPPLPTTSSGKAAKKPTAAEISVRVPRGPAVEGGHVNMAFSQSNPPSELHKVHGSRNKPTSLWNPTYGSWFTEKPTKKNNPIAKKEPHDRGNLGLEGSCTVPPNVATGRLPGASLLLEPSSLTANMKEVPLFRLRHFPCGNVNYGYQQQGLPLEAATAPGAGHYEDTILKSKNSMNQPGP

The term pKi denotes the Ki on a negative log10 scale, so that one unit is a factor of ten. Turning to `O=c1[nH]ncc2cc(Cc3c(Cl)cccc3Cl)nc(Nc3ccc(N4CCNCC4)cc3Br)c12` [Example 61, 5-{[2-bromo-4-(piperazin-1-yl)phenyl]amino}-7-(2,6-dichlorobenzyl)pyrido[3,4-d]pyridazin-4(3H)-one], the pKi was 8.70.

As for `O=c1[nH]ncc2cc(Cc3c(Cl)cccc3Cl)nc(Nc3ccc(N4CCNCC4)cc3Cl)c12` [Example 57, 5-{[2-chloro-4-(piperazin-1-yl)phenyl]amino}-7-(2,6-dichlorobenzyl)pyrido[3,4-d]pyridazin-4(3H)-one], the pKi was 8.70.

On to `COc1cc(N2CCNCC2)ccc1Nc1nc(Nc2ccccn2)cc2cn[nH]c(=O)c12` [Example 43, 5-{[2-methoxy-4-(piperazin-1-yl)phenyl]amino}-7-(pyridin-2-ylamino)pyrido[3,4-d]pyridazin-4(3H)-one], for which the pKi is 7.82.

On to `COc1cc(C2CCNCC2)ccc1Nc1cc(Cc2ccccc2F)nc2cn[nH]c(=O)c12` [Example 107, 2-(2-fluorobenzyl)-4-{[2-methoxy-4-(piperidin-4-yl)phenyl]amino}pyrido[2,3-d]pyridazin-5(6H)-one], for which the pKi was 7.80.

In the case of `COc1cc2c(cc1Nc1cc(Cc3c(Cl)cccc3Cl)cc3cn[nH]c(=O)c13)CNCC2` [Example 74, 6-(2,6-dichlorobenzyl)-8-[(6-methoxy-1,2,3,4-tetrahydroisoquinolin-7-yl)amino]phthalazin-1(2H)-one], the pKi is 8.40.

For `COc1cc(N2CCNCC2)ccc1Nc1nc(NC2CCN(C)CC2)cc2cn[nH]c(=O)c12` [Example 58, 5-{[2-methoxy-4-(piperazin-1-yl)phenyl]amino}-7-[(1-methylpiperidin-4-yl)amino]pyrido[3,4-d]pyridazin-4(3H)-one], the pKi was 8.40.

For `COc1cc(C2CCNCC2)ccc1Nc1cc(Cc2c(F)cccc2F)nc2cn[nH]c(=O)c12` [Example 109, 2-(2,6-difluorobenzyl)-4-{[2-methoxy-4-(piperidin-4-yl)phenyl]amino}pyrido[2,3-d]pyridazin-5(6H)-one], the pKi was 8.22.

On to `COc1cc(N2CCNCC2)ccc1Nc1nc(NC2CCOCC2)cc2cnnc(O)c12` [Example 55, 5-{[2-methoxy-4-(piperazin-1-yl)phenyl]amino}-7-(tetrahydro-2H-pyran-4-ylamino)pyrido[3,4-d]pyridazin-4-ol], for which the pKi was 8.22.

Turning to `COc1cc(N2CCNCC2)ccc1Nc1nc(Nc2ccccc2F)cc2cn[nH]c(=O)c12` [Example 48, 7-[(2-fluorophenyl)amino]-5-{[2-methoxy-4-(piperazin-1-yl)phenyl]amino}pyrido[3,4-d]pyridazin-4(3H)-one], the pKi is 8.40.

In the case of `COc1cc(N2CCNCC2)ccc1Nc1nc(Nc2c(C)cccc2C)cc2cn[nH]c(=O)c12` [Example 49, 7-[(2,6-dimethylphenyl)amino]-5-{[2-methoxy-4-(piperazin-1-yl)phenyl]amino}pyrido[3,4-d]pyridazin-4(3H)-one], the pKi was 9.00.

For `COc1cc(C2CCNCC2)ccc1Nc1cc(Cc2cccc(Cl)c2Cl)nc2cn[nH]c(=O)c12` [Example 108, 2-(2,3-dichlorobenzyl)-4-{[2-methoxy-4-(piperidin-4-yl)phenyl]amino}pyrido[2,3-d]pyridazin-5(6H)-one], the pKi is 8.10.

On to `COc1cc(N2CCNCC2)ccc1Nc1cc(Cc2c(Cl)cccc2Cl)nc2c1C(=O)NCCN2` [Example 3, 8-(2,6-dichlorobenzyl)-6-{[2-methoxy-4-(piperazin-1-yl)phenyl]amino}-1,2,3,4-tetrahydro-5H-pyrido[2,3-e][1,4]diazepin-5-one], for which the pKi is 6.18.

In the case of `COc1cc(N2CCNCC2)ccc1Nc1nc(Oc2c(Cl)cccc2Cl)cc2cn[nH]c(=O)c12` [Example 63, 7-(2,6-dichlorophenoxy)-5-{[2-methoxy-4-(piperazin-1-yl)phenyl]amino}pyrido[3,4-d]pyridazin-4(3H)-one], the pKi is 9.00.

For the compound `COc1cc(C2CCNCC2)ccc1Nc1cc(Cc2c(F)cccc2Cl)nc2cn[nH]c(=O)c12` [Example 112, 2-(2-chloro-6-fluorobenzyl)-4-{[2-methoxy-4-(piperidin-4-yl)phenyl]amino}pyrido[2,3-d]pyridazin-5(6H)-one], the pKi was 8.40.

`COc1cc(N2CCNCC2)ccc1Nc1nc(NCc2ccco2)cc2cnnc(O)c12` [Example 38, 7-[(furan-2-ylmethyl)amino]-5-{[2-methoxy-4-(piperazin-1-yl)phenyl]amino}pyrido[3,4-d]pyridazin-4-ol]: the pKi was 7.80.

For `CCOc1cc(CN2CCCC2)ccc1Nc1nc(Oc2ccccc2Cl)cc2cn[nH]c(=O)c12` [Example 95, 7-(2-chlorophenoxy)-5-{[2-ethoxy-4-(pyrrolidin-1-ylmethyl)phenyl]amino}pyrido[3,4-d]pyridazin-4(3H)-one], the pKi is 6.86.

`COc1cc(N2CCNCC2)ccc1Nc1nc(NCCN(C)C)cc2cn[nH]c(=O)c12` [Example 45, 7-{[2-(dimethylamino)ethyl]amino}-5-{[2-methoxy-4-(piperazin-1-yl)phenyl]amino}pyrido[3,4-d]pyridazin-4(3H)-one]: the pKi is 7.29.

With `COc1cc(N2CCNCC2)ccc1Nc1nc(Nc2cccc(Cl)c2F)cc2cnnc(O)c12` [Example 54, 7-[(3-chloro-2-fluorophenyl)amino]-5-{[2-methoxy-4-(piperazin-1-yl)phenyl]amino}pyrido[3,4-d]pyridazin-4-ol], the pKi is 8.40.

For the compound `Oc1nncc2cc(NCC3CC3)nc(Nc3ccc(CN4CCCC4)cc3Cl)c12` [Example 93, 5-{[2-chloro-4-(pyrrolidin-1-ylmethyl)phenyl]amino}-7-[(cyclopropylmethyl)amino]pyrido[3,4-d]pyridazin-4-ol], the pKi is 8.40.

On to `COc1cc(N2CCNCC2)ccc1Nc1nc(Oc2ccc(Cl)c(Cl)c2Cl)cc2cnnc(O)c12` [Example 84, 5-{[2-methoxy-4-(piperazin-1-yl)phenyl]amino}-7-(2,3,4-trichlorophenoxy)pyrido[3,4-d]pyridazin-4-ol], for which the pKi was 8.30.

On to `COc1cc(N2CCNCC2)ccc1Nc1nc(Nc2c(F)cccc2Cl)cc2cn[nH]c(=O)c12` [Example 29, 7-[(2-chloro-6-fluorophenyl)amino]-5-{[2-methoxy-4-(piperazin-1-yl)phenyl]amino}pyrido[3,4-d]pyridazin-4(3H)-one], for which the pKi was 9.00.

For `COc1cc(N2CCNCC2)ccc1Nc1nc(Nc2c(F)cc(F)cc2F)cc2cn[nH]c(=O)c12` [Example 52, 5-{[2-methoxy-4-(piperazin-1-yl)phenyl]amino}-7-[(2,4,6-trifluorophenyl)amino]pyrido[3,4-d]pyridazin-4(3H)-one], the pKi is 8.70.

As for `O=c1[nH]ncc2cc(N3CC(O)C3)nc(Nc3ccc(CN4CCCC4)cc3Cl)c12` [Example 97, 5-{[2-chloro-4-(pyrrolidin-1-ylmethyl)phenyl]amino}-7-(3-hydroxyazetidin-1-yl)pyrido[3,4-d]pyridazin-4(3H)-one], the pKi was 7.13.

Turning to `COc1cc(N2CCNCC2)ccc1Nc1nc(Nc2ccc(Cl)cc2Cl)cc2cnnc(O)c12` [Example 34, 7-[(2,4-dichlorophenyl)amino]-5-{[2-methoxy-4-(piperazin-1-yl)phenyl]amino}pyrido[3,4-d]pyridazin-4-ol], the pKi was 8.40.
